{"source": "patent US7851459B2", "about": "“Methods for diluting water-stabilized antimicrobial organosilane compositions” (Vitec Speciality Chemicals Limited, priority 2007, dated 2010)", "origin": "cited, not measured here", "details": "mixture of organosilane and water", "data": [{"smiles": "CCCCCCCCCCCCCCCCCC[N+](C)(C)CCC[Si](OC)(OC)OC.[Cl-]", "note": "[3-(trimethoxysilyl)propyl-dimethyloctadecyl ammonium chloride]", "values": [{"measurement": "time until mixture with water begins to lose effectiveness", "value": "four to eight"}]}]}
